Test results as given in ChEMBL document CHEMBL3046790, “Antioxidant potential and antimicrobial screening of some novel imidazole derivatives: greenway efficient one pot synthesis” (Med Chem Res, 2012).
≈ marks a conversion by molar mass, not a printed value.

Tests used:
Type in all cases: functional
Klebsiella pneumoniae = assay: Antimicrobial activity against Klebsiella pneumoniae after 24 hr
[1] = Antioxidant activity assessed as superoxide scavenging activity at 60 uM after 15 min by PMS/NADH-NBT assay
[2] = Antioxidant activity assessed as DPPH scavenging activity at 30 uM after 30 min by spectrophotometry
[3] = Antioxidant activity assessed as superoxide scavenging activity at 100 uM after 15 min by PMS/NADH-NBT assay
[4] = Antioxidant activity assessed as superoxide scavenging activity after 15 min by PMS/NADH-NBT assay
[5] = Antioxidant activity assessed as DPPH scavenging activity after 30 min by spectrophotometry
[6] = Antioxidant activity assessed as DPPH scavenging activity at 50 uM after 30 min by spectrophotometry
[7] = Antioxidant activity assessed as superoxide scavenging activity at 40 uM after 15 min by PMS/NADH-NBT assay
[8] = Antioxidant activity assessed as DPPH scavenging activity at 10 uM after 30 min by spectrophotometry
[9] = Antioxidant activity assessed as hydroxyl radical scavenging activity at 20 uM after 60 min using thiobarbutaric acid by spectrophotometry
[10] = Antioxidant activity assessed as hydroxyl radical scavenging activity at 40 uM after 60 min using thiobarbutaric acid by spectrophotometry
[11] = Antioxidant activity assessed as superoxide scavenging activity at 80 uM after 15 min by PMS/NADH-NBT assay
[12] = Antioxidant activity assessed as hydroxyl radical scavenging activity at 60 uM after 60 min using thiobarbutaric acid by spectrophotometry
[13] = Antioxidant activity assessed as superoxide scavenging activity at 10 uM after 15 min by PMS/NADH-NBT assay
[14] = Antioxidant activity assessed as superoxide scavenging activity at 20 uM after 15 min by PMS/NADH-NBT assay
[15] = Antioxidant activity assessed as DPPH scavenging activity at 40 uM after 30 min by spectrophotometry
[16] = Antioxidant activity assessed as hydroxyl radical scavenging activity at 10 uM after 60 min using thiobarbutaric acid by spectrophotometry
[17] = Antioxidant activity assessed as DPPH scavenging activity at 20 uM after 30 min by spectrophotometry
[18] = Antioxidant activity assessed as hydroxyl radical scavenging activity at 80 uM after 60 min using thiobarbutaric acid by spectrophotometry
[19] = Antioxidant activity assessed as hydroxyl radical scavenging activity at 100 uM after 60 min using thiobarbutaric acid by spectrophotometry
[20] = Antioxidant activity assessed as hydroxyl radical scavenging activity after 60 min using thiobarbutaric acid by spectrophotometry
Candida = assay: Antimicrobial activity against Candida-6 after 24 hr; conditions: Candida, 6, 24 h
Aspergillus flavus = assay: Antimicrobial activity against Aspergillus flavus after 24 hr
Aspergillus niger = assay: Antimicrobial activity against Aspergillus niger after 24 hr
Escherichia coli = assay: Antimicrobial activity against Escherichia coli after 24 hr
Staphylococcus aureus = assay: Antimicrobial activity against Staphylococcus aureus after 24 hr

SMILES | MIC (Klebsiella pneumoniae) | Activity [1] | Activity [2] | Activity [3] | IC50 [4] | IC50 [5] | Activity [6] | Activity [7] | Activity [8] | Activity [9] | Activity [10] | Activity [11] | Activity [12] | Activity [13] | Activity [14] | Activity [15] | Activity [16] | Activity [17] | Activity [18] | Activity [19] | further results
O=C(O)c1cn(C2CC2)c2cc(N3CCNCC3)c(F)cc2c1=O [CIPROFLOXACIN] | 100 µg/mL (≈ 302 µM) | – | – | – | – | – | – | – | – | – | – | – | – | – | – | – | – | – | – | – | –
O=C1O[C@H]([C@@H](O)CO)C(O)=C1O [ASCORBIC ACID] | – | 62.1% | 48.8% | 73.5% | 2.8 µg/mL (≈ 15.9 µM) | 3.1 µg/mL (≈ 17.6 µM) | 75.4% | 55.5% | 26.5% | 41.3% | 48.6% | 66.5% | 65.3% | 32.6% | 48.8% | 66.5% | 24.3% | 34.5% | 70.4% | 78.5% | IC50 [20]: 2.72 µg/mL (≈ 15.4 µM)
C[C@@H]1[C@H](O)[C@@H](C)/C=C/C=C/C=C/C=C/C=C/C=C/C=C/[C@H](O[C@@H]2O[C@H](C)[C@@H](O)[C@H](N)[C@@H]2O)C[C@@H]2O[C@](O)(C[C@@H](O)C[C@@H](O)[C@H](O)CC[C@@H](O)C[C@@H](O)CC(=O)O[C@H]1C)C[C@H](O)[C@H]2C(=O)O [AMPHOTERICIN B] | – | – | – | – | – | – | – | – | – | – | – | – | – | – | – | – | – | – | – | – | MIC (Candida): 12.5 µg/mL (≈ 13.5 µM); MIC (Aspergillus flavus): 25 µg/mL (≈ 27.1 µM); MIC (Aspergillus niger): 50 µg/mL (≈ 54.1 µM)
COc1cc(OC)cc(-n2c(-c3ccccc3)nc(C)c2C)c1 | 100 µg/mL (≈ 324 µM) | 53.3% | 52.5% | 61% | 4.16 µg/mL (≈ 13.5 µM) | 3.8 µg/mL (≈ 12.3 µM) | 55.5% | 49.5% | 17.2% | 39.1% | 47.1% | 59% | 54% | 13.3% | 32.4% | 57.6% | 34.5% | 20.2% | 55.2% | 58.6% | Activity [4]: Dose-dependent effect; MIC (Escherichia coli): 50 µg/mL (≈ 162 µM); Activity [5]: Dose-dependent effect; MIC (Staphylococcus aureus): 25 µg/mL (≈ 81.1 µM); MIC (Candida): 25 µg/mL (≈ 81.1 µM); MIC (Aspergillus flavus): 25 µg/mL (≈ 81.1 µM); MIC (Aspergillus niger): 25 µg/mL (≈ 81.1 µM); Activity [20]: Dose-dependent effect; IC50 [20]: 4.14 µg/mL (≈ 13.4 µM)
COc1cc(OC)cc(-n2c(-c3ccc(F)cc3)nc(C)c2C)c1 | 100 µg/mL (≈ 306 µM) | 60% | 42.4% | 55.2% | 4.16 µg/mL (≈ 12.7 µM) | 3.98 µg/mL (≈ 12.2 µM) | 56.6% | 55.2% | 12.1% | 40.2% | 47.1% | 58.1% | 57.5% | 21.9% | 24.8% | 57.6% | 35.6% | 19.2% | 55.2% | 54% | Activity [4]: Dose-dependent effect; MIC (Escherichia coli): 50 µg/mL (≈ 153 µM); Activity [5]: Dose-dependent effect; MIC (Staphylococcus aureus): 50 µg/mL (≈ 153 µM); MIC (Candida): 50 µg/mL (≈ 153 µM); MIC (Aspergillus flavus): 50 µg/mL (≈ 153 µM); MIC (Aspergillus niger): 50 µg/mL (≈ 153 µM); Activity [20]: Dose-dependent effect; IC50 [20]: 4.18 µg/mL (≈ 12.8 µM)
COc1ccc(-n2c(-c3ccc(F)cc3)nc(C)c2C)cc1 | 50 µg/mL (≈ 169 µM) | 41.9% | 46.5% | 41% | 5.2 µg/mL (≈ 17.5 µM) | 3.46 µg/mL (≈ 11.7 µM) | 68.7% | 39% | 11.1% | 48.3% | 43.7% | 45.7% | 48.3% | 38.1% | 39% | 64.6% | 39.1% | 20.2% | 50.6% | 52.9% | Activity [4]: Dose-dependent effect; MIC (Escherichia coli): 25 µg/mL (≈ 84.4 µM); Activity [5]: Dose-dependent effect; MIC (Staphylococcus aureus): 50 µg/mL (≈ 169 µM); MIC (Candida): 25 µg/mL (≈ 84.4 µM); MIC (Aspergillus flavus): 25 µg/mL (≈ 84.4 µM); MIC (Aspergillus niger): 25 µg/mL (≈ 84.4 µM); Activity [20]: Dose-dependent effect; IC50 [20]: 3.84 µg/mL (≈ 13 µM)
COc1ccc(-n2c(-c3ccccc3)nc(C)c2C)cc1 | 100 µg/mL (≈ 359 µM) | 64.9% | 59.6% | 59.6% | 3.74 µg/mL (≈ 13.4 µM) | 3.64 µg/mL (≈ 13.1 µM) | 55.5% | 63.1% | 14.1% | 40.2% | 43.7% | 68.4% | 48.3% | 10.5% | 28.1% | 56.6% | 35.6% | 28.3% | 50.6% | 52.9% | Activity [4]: Dose-dependent effect; MIC (Escherichia coli): 25 µg/mL (≈ 89.8 µM); Activity [5]: Dose-dependent effect; MIC (Staphylococcus aureus): 50 µg/mL (≈ 180 µM); MIC (Candida): 25 µg/mL (≈ 89.8 µM); MIC (Aspergillus flavus): 25 µg/mL (≈ 89.8 µM); MIC (Aspergillus niger): 100 µg/mL (≈ 359 µM); Activity [20]: Dose-dependent effect; IC50 [20]: 4.5 µg/mL (≈ 16.2 µM)
